The structures appear in SMILES notation. Where a SMILES comes first, the peptide text is derived from it. [ ]: non-standard residue; d: D form. hLeu = CC(C)CC[C@H](N)C(=O)O A value given as a limit tells only on which side of the number the result lay.

One may read the IC50 as the concentration that gives 50% inhibition. High values mean weaker potency in that assay, low ones greater potency in that assay.

This test has as its target T1, Interleukin-23 receptor (Homo sapiens, UniProt Q5VWK5).
T1 sequence (Q5VWK5 whole entry): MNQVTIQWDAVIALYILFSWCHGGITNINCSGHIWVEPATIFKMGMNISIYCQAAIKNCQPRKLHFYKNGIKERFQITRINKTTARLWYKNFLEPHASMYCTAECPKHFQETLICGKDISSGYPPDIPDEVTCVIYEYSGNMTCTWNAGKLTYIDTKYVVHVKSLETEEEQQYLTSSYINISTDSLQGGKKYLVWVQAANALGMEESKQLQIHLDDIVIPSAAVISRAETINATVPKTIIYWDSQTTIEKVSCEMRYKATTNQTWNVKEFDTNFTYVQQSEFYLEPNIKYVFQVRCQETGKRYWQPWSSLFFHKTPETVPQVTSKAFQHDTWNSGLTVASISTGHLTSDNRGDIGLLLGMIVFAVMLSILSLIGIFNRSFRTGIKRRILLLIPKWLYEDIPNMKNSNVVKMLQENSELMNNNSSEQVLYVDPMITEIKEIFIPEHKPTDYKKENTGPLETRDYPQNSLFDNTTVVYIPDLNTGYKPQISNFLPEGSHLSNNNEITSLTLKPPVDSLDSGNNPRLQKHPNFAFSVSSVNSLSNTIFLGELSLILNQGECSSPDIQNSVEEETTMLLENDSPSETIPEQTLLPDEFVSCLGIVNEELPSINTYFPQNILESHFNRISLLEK
Nature of the test: Inhibition of interleukin-23 binding to human interleukin-23 receptor incubated for 2 hrs by competitive binding ELISA. In general terms: An ELISA detects its analyte on a solid surface through an enzyme-linked reagent.
For the compound `CC(C)[C@H](NC(=O)[C@H](Cc1c[nH]c2ccccc12)NC(=O)[C@H](CC(=O)O)NC(=O)[C@H](C)NC(=O)[C@@H](N)CS)C(=O)N[C@@H](CS)C(=O)N[C@@H](Cc1ccc(O)cc1)C(=O)N[C@@H](Cc1cccc2ccccc12)C(=O)N[C@@H](Cc1cnc[nH]1)C(=O)N[C@H](C(=O)N[C@@H](Cc1ccccc1)C(=O)N(C)CC(=O)O)[C@@H](C)O`, the IC50 is > 1000 nM.
On to `CC(=O)N[C@@H](CS)C(=O)N[C@@H](C)C(=O)N[C@@H](CC(=O)O)C(=O)N[C@@H](Cc1c[nH]c2ccccc12)C(=O)N[C@H](C(=O)N[C@@H](CS)C(=O)N[C@@H](Cc1ccc(O)cc1)C(=O)N[C@@H](Cc1c[nH]c2ccccc12)C(=O)N[C@@H](CCCN)C(=O)N[C@H](C(=O)N[C@@H](Cc1ccccc1)C(=O)NCC(=O)NCCC(=O)N[C@H](CCCCN)C(N)=O)C1CCCCC1)C(C)C`, for which the IC50 was > 30000 nM.
In turn, `CC(=O)NCCCC[C@H](NC(=O)[C@](C)(CCCCN)NC(=O)[C@H](Cc1ccc2ccccc2c1)NC(=O)[C@H](Cc1ccc(Cl)c(Cl)c1)NC(=O)[C@@H](NC(=O)[C@H](CCC(N)=O)NC(=O)[C@H](Cc1c[nH]c2ccccc12)NC(=O)[C@@H](NC(=O)[C@H](CCC(N)=O)NC(=O)[C@@H](NC(C)=O)C(C)(C)S)[C@@H](C)O)C(C)(C)S)C(=O)N[C@@H](CC(N)=O)C(=O)NCC(N)=O` registered an IC50 of 100 to 1000 nM.
For the compound `CC(C)[C@H](NC(=O)[C@H](Cc1c[nH]c2ccccc12)NC(=O)[C@H](CC(=O)O)NC(=O)[C@H](C)NC(=O)[C@@H](N)C(C)(C)S)C(=O)N[C@H](C(=O)N[C@@H](Cc1ccc(O)cc1)C(=O)N[C@@H](Cc1c[nH]c2ccccc12)C(=O)N[C@@H](Cc1cnc[nH]1)C(=O)N[C@H](C(=O)N[C@@H](Cc1ccccc1)C(=O)NCC(N)=O)[C@@H](C)O)C(C)(C)S`, the IC50 was > 6000 nM.
`CSCC[C@H](NC(=O)[C@@H](N)CS)C(=O)N[C@H](C(=O)N[C@@H](Cc1c[nH]c2ccccc12)C(=O)N[C@@H](CCC(N)=O)C(=O)N[C@@H](CS)C(=O)N[C@@H](Cc1ccc(O)cc1)C(=O)N[C@@H](Cc1c[nH]c2ccccc12)C(=O)N[C@@H](CC(C)C)C(=O)N[C@@H](Cc1ccc(O)cc1)C(=O)NCC(=O)N[C@@H](CCCNC(=N)N)C(=O)NCCOCC(=O)N[C@H](CCCCN)C(N)=O)[C@@H](C)O`: the IC50 was > 30000 nM.
Regarding `CC(=O)N[C@@H](CS)C(=O)N[C@@H](C)C(=O)N[C@@H](CC(=O)O)C(=O)N[C@@H](Cc1c[nH]c2ccccc12)C(=O)N[C@@H](CCCCNC(=O)COCC(=O)NCCCC[C@H](NC(=O)[C@H](Cc1c[nH]c2ccccc12)NC(=O)[C@H](CC(=O)O)NC(=O)[C@H](C)NC(=O)[C@H](CS)NC(C)=O)C(=O)N[C@@H](CS)C(=O)N[C@@H](Cc1ccc(O)cc1)C(=O)N[C@@H](Cc1c[nH]c2ccccc12)C(=O)N[C@@H](Cc1cnc[nH]1)C(=O)N[C@H](C(=O)N[C@@H](Cc1ccccc1)C(=O)NCC(=O)O)[C@@H](C)O)C(=O)N[C@@H](CS)C(=O)N[C@@H](Cc1ccc(O)cc1)C(=O)N[C@@H](Cc1c[nH]c2ccccc12)C(=O)N[C@@H](Cc1cnc[nH]1)C(=O)N[C@H](C(=O)N[C@@H](Cc1ccccc1)C(=O)NCC(=O)O)[C@@H](C)O`, the concentration for half-maximal inhibition (IC50) was > 10000 nM.
Under `CC(=O)N[C@@H](CS)C(=O)N[C@@H](C)C(=O)N[C@@H](CC(=O)O)C(=O)N[C@@H](Cc1c[nH]c2ccccc12)C(=O)N[C@H](C(=O)N[C@@H](CS)C(=O)N[C@@H](Cc1ccc(O)cc1)C(=O)N[C@@H](Cc1c[nH]c2ccccc12)C(=O)N[C@@H](Cc1cnc[nH]1)C(=O)N[C@H](C(=O)N[C@@H](Cc1ccccc1)C(=O)NCC(=O)NCCC(=O)N[C@H](CCCCNC(=O)COCC(=O)NCCCC[C@@H](NC(=O)CCNC(=O)CNC(=O)[C@H](Cc1ccccc1)NC(=O)[C@@H](NC(=O)[C@H](Cc1cnc[nH]1)NC(=O)[C@H](Cc1c[nH]c2ccccc12)NC(=O)[C@H](Cc1ccc(O)cc1)NC(=O)[C@H](CS)NC(=O)[C@@H](NC(=O)[C@H](Cc1c[nH]c2ccccc12)NC(=O)[C@H](CC(=O)O)NC(=O)[C@H](C)NC(=O)[C@H](CS)NC(C)=O)C(C)C)[C@@H](C)O)C(=O)O)C(=O)O)[C@@H](C)O)C(C)C` stands 25 to 100 nM; under `CC(=O)N[C@@H](CS)C(=O)N[C@@H](C)C(=O)N[C@@H](CC(=O)O)C(=O)N[C@@H](Cc1c[nH]c2ccccc12)C(=O)N[C@H](C(=O)N[C@@H](CS)C(=O)N[C@@H](Cc1ccc(O)cc1)C(=O)N[C@@H](Cc1c[nH]c2ccccc12)C(=O)N[C@@H](Cc1cnc[nH]1)C(=O)N[C@H](C(=O)N[C@@H](CCCCN)C(=O)NCC(=O)O)[C@@H](C)O)C(C)C`, > 1000 nM; under `CC(=O)N[C@@H](CS)C(=O)N[C@@H](CCC(N)=O)C(=O)N[C@H](C(=O)N[C@@H](Cc1c[nH]c2ccccc12)C(=O)N[C@@H](CCC(N)=O)C(=O)N[C@@H](CS)C(=O)N[C@@H](Cc1ccc(O)cc1)C(=O)N1Cc2ccccc2C[C@H]1CC(=O)N[C@@H](CCCNC(=N)N)C(=O)N[C@H](C(=O)N[C@@H](CC(N)=O)C(=O)NCC(=O)NCCOCC(=O)N[C@H](CCCCN)C(N)=O)C(C)C)[C@@H](C)O`, > 30000 nM.
For the compound `C[C@H](NC(=O)[C@@H](N)CS)C(=O)N[C@@H](CC(=O)O)C(=O)N[C@@H](Cc1c[nH]c2ccccc12)C(=O)N[C@@H](CS)C(=O)N[C@@H](CS)C(=O)N[C@@H](Cc1ccc(O)cc1)C(=O)N[C@@H](Cc1c[nH]c2ccccc12)C(=O)N[C@@H](CS)C(=O)N[C@H](C(=O)N[C@@H](Cc1ccccc1)C(=O)NCC(N)=O)[C@@H](C)O` (H-CADWCCYWCTFG-NH2), the IC50 was > 1000 nM.
With `CC(C)[C@H](NC(=O)[C@H](Cc1c[nH]c2ccccc12)NC(=O)[C@H](CC(=O)O)NC(=O)[C@H](C)NC(=O)[C@@H](N)CS)C(=O)N[C@@H](CS)C(=O)N[C@@H](Cc1ccc(O)cc1)C(=O)N[C@@H](C)C(=O)N[C@@H](Cc1cnc[nH]1)C(=O)N[C@H](C(=O)N[C@@H](Cc1ccccc1)C(=O)NCC(N)=O)[C@@H](C)O`, the IC50 is > 1000 nM.
In the case of `CC(=O)N[C@@H](CS)C(=O)N[C@@H](CCC(N)=O)C(=O)N[C@H](C(=O)N1CCC[C@H]1C(=O)N[C@@H](CCC(N)=O)C(=O)N[C@@H](CS)C(=O)N[C@@H](Cc1ccc(O)cc1)C(=O)N[C@@H](Cc1c[nH]c2ccccc12)C(=O)N[C@@H](CCC(C)C)C(=O)N[C@@H](CCC(=O)O)C(=O)N[C@@H](CC(N)=O)C(=O)NCC(N)=O)[C@@H](C)O` (Ac-CQTPQCYW[hLeu]ENG-NH2), the IC50 was > 10000 nM.
As to `CC(=O)N[C@H](CCCCN)C(=O)NCCC(=O)N[C@@H](CS)C(=O)N[C@@H](C)C(=O)N[C@@H](CC(=O)O)C(=O)N[C@@H](Cc1c[nH]c2ccccc12)C(=O)N[C@H](C(=O)N[C@@H](CS)C(=O)N[C@@H](Cc1ccc(O)cc1)C(=O)N[C@@H](Cc1c[nH]c2ccccc12)C(=O)N[C@@H](Cc1cnc[nH]1)C(=O)N[C@H](C(=O)N[C@@H](Cc1ccccc1)C(=O)NCC(=O)O)[C@@H](C)O)C(C)C`, the 50% inhibitory concentration (IC50) was > 1000 nM.
Compound `C[C@@H](O)[C@H](NC(=O)[C@@H](N)CS)C(=O)N[C@@H](CC(=O)O)C(=O)N[C@@H](Cc1c[nH]c2ccccc12)C(=O)N[C@@H](CCCCN)C(=O)N[C@@H](CS)C(=O)N[C@@H](Cc1ccc(O)cc1)C(=O)N[C@@H](Cc1c[nH]c2ccccc12)C(=O)N[C@@H](Cc1cnc[nH]1)C(=O)N[C@@H](CCC(=O)O)C(=O)N[C@@H](Cc1ccccc1)C(=O)NCC(N)=O` (H-CTDWKCYWHEFG-NH2) returned an IC50 of 500 to 1000 nM.
Turning to `CC(C)[C@H](NC(=O)[C@H](Cc1cccc2ccccc12)NC(=O)[C@H](CC(=O)O)NC(=O)[C@H](C)NC(=O)[C@@H](N)CS)C(=O)N[C@@H](CS)C(=O)N[C@@H](Cc1ccc(O)cc1)C(=O)N[C@@H](Cc1c[nH]c2ccccc12)C(=O)N[C@@H](Cc1cnc[nH]1)C(=O)N[C@H](C(=O)N[C@@H](Cc1ccccc1)C(=O)NCC(N)=O)[C@@H](C)O`, the half-inhibitory concentration (IC50) was > 1000 nM.
For `CC(=O)N[C@@H](CS)C(=O)N[C@@H](C)C(=O)N[C@@H](CC(=O)O)C(=O)N[C@@H](Cc1c[nH]c2ccccc12)C(=O)N[C@H](C(=O)N[C@@H](CS)C(=O)N[C@@H](Cc1ccc(O)cc1)C(=O)N[C@@H](Cc1c[nH]c2ccccc12)C(=O)N[C@@H](CCCCN)C(=O)N[C@H](C(=O)N[C@@H](Cc1ccccc1)C(=O)NCC(=O)O)[C@@H](C)O)C(C)C`, the IC50 is > 1000 nM.
Take `CC(C)[C@H](NC(=O)[C@H](Cc1cnc[nH]1)NC(=O)[C@H](Cc1c[nH]c2ccccc12)NC(=O)[C@H](Cc1ccc(O)cc1)NC(=O)[C@H](CS)NC(=O)[C@@H](NC(=O)[C@H](Cc1c[nH]c2ccccc12)NC(=O)[C@H](CC(=O)O)NC(=O)[C@H](CO)NC(=O)[C@@H](N)CS)C(C)C)C(=O)N[C@@H](Cc1ccc(O)cc1)C(=O)NCC(N)=O` (H-CSDWVCYWHVYG-NH2): the IC50 is 500 to 1000 nM.
For `CC(=O)N[C@@H](CS)C(=O)N[C@@H](CCC(N)=O)C(=O)N[C@H](C(=O)N[C@@H](Cc1c[nH]c2ccccc12)C(=O)N[C@@H](CCC(N)=O)C(=O)N[C@@H](CS)C(=O)N[C@@H](Cc1ccc(O)cc1)C(=O)N[C@@H](Cc1c[nH]c2ccccc12)C(=O)N1CCC[C@@H]1C(=O)N[C@@H](CCC(=O)O)C(=O)N[C@@H](CC(N)=O)C(=O)NCC(N)=O)[C@@H](C)O`, the IC50 was > 30000 nM.
`CC(=O)NCC(=O)NCC(=O)NCC(=O)N[C@@H](CCC(=O)O)C(=O)N[C@@H](CS)C(=O)N[C@@H](CCC(=O)O)C(=O)N[C@@H](CC(N)=O)C(=O)N[C@@H](Cc1c[nH]c2ccccc12)C(=O)N[C@@H](CCC(=O)O)C(=O)N[C@@H](CS)C(=O)N[C@@H](Cc1ccc(O)cc1)C(=O)N[C@@H](Cc1c[nH]c2ccccc12)C(=O)N[C@@H](Cc1cnc[nH]1)C(=O)N[C@H](C(=O)N[C@@H](Cc1ccccc1)C(=O)NCC(N)=O)[C@@H](C)O` (Ac-GGGECENWECYWHTFG-NH2) returned an IC50 of 500 to 1000 nM.

For the origin of these results see ChEMBL document CHEMBL4417631, “Oral peptide inhibitors of interleukin-23 receptor and their use to treat inflammatory bowel diseases” (2017).
